Laboratory results taken from patent US4202819A, “2-(3-Alanyl)clavam antibiotic” (Hoffman-La Roche Inc., priority 1979, dated 1980).
Read-outs that look alike come from different tables or passages of the source.

How the values were obtained:
Assay in all cases: in vitro antimicrobial activity (MIC), agar diffusion well method
Type in all cases: cell-based
[1] = test system: Acinetobacter calcoaceticus PCI-3 (ATCC 10153)
Description: (§1) The in vitro antimicrobial activity of the antibiotic (minimal inhibitory concentration) was determined by the agar diffusion well method. The results expressed in micrograms/ml were as follows: […]

[2] = test system: Bacillus megaterium 164 (ATCC 8011); conditions: Priestia megaterium
Description: as §1

[3] = test system: Bacillus sp. E (ATCC 27859); conditions: ATCC27859, BBL Antibiotic Medium "A" Assay Agar
Description: as §1

[4] = test system: Bacillus sp. TA (ATCC 27860)
Description: as §1

[5] = test system: Bacillus subtilis 558 (NRRL 558)
Description: as §1

[6] = test system: Candida albicans 155 (NRRL 477)
Description: as §1

[7] = test system: Escherichia coli 94 (ATCC 27856)
Description: as §1

[8] = test system: Klebsiella pneumoniae 369 (ATCC 27858)
Description: as §1

[9] = test system: Mycobacterium phlei 78 (ATCC 355); conditions: Mycolicibacterium phlei
Description: as §1

[10] = test system: Paecilomyces varioti M16 (ATCC 26820)
Description: as §1

[11] = test system: Penicillium digitatum 0184 (ATCC 26821); conditions: ATCC26821, BBL Antibiotic Medium "A" Assay Agar
Description: as §1

[12] = test system: Proteus vulgaris 101N (ATCC 6380); conditions: ATCC6380, BBL Antibiotic Medium "A" Assay Agar
Description: as §1

[13] = test system: Pseudomonas aeruginosa 56 (ATCC 8709)
Description: as §1

[14] = test system: Saccharomyces cerevisiae 90 (ATCC 4226)
Description: as §1

[15] = test system: Sarcina lutea PCI (ATCC 9341); conditions: Micrococcus luteus
Description: as §1

[16] = test system: Serratia marcescens SM (ATCC 27857)
Description: as §1

[17] = test system: Serratia sp. 101 (ATCC 93)
Description: as §1

[18] = test system: Staphylococcus aureus 82 (ATCC 6538 P); conditions: ATCC6538, BBL Antibiotic Medium "A" Assay Agar
Description: as §1

[19] = test system: Streptococcus faecium (ATCC 8043); conditions: Enterococcus faecium, ATCC8043; BBL Antibiotic Medium "A" Assay Agar
Description: as §1

[20] = test system: Streptomyces cellulosae 097 (ATCC 3313)
Description: as §1

Measured: MIC

N[C@@H](CC1CN2C(=O)CC2O1)C(=O)O (some centres unmarked) [2-(3-alanyl)clavam, 3-(7-oxo-4-oxa-1-azabicyclo[3.2.0]hept-3-yl)alanine]
> 1000 µg/mL: [1]; ATCC10153, BBL Antibiotic Medium "A" Assay Agar | [2]; ATCC8011, BBL Antibiotic Medium "A" Assay Agar | [3] | [4]; ATCC27860, BBL Antibiotic Medium "A" Assay Agar | [5]; NRRL558, BBL Antibiotic Medium "A" Assay Agar | [6]; NRRL477, BBL Antibiotic Medium "A" Assay Agar | [7]; ATCC27856, BBL Antibiotic Medium "A" Assay Agar | [8]; ATCC27858, BBL Antibiotic Medium "A" Assay Agar | [9]; ATCC355, BBL Antibiotic Medium "A" Assay Agar | [11] | [12] | [13]; Davis Minimal Agar | [13]; Pseudomonas aeruginosa, ATCC8709, BBL Antibiotic Medium "A" Assay Agar, read-out: MIC | [14]; ATCC4226, BBL Antibiotic Medium "A" Assay Agar | [15]; ATCC9341, BBL Antibiotic Medium "A" Assay Agar | [16]; ATCC27857, BBL Antibiotic Medium "A" Assay Agar | [17]; ATCC93, BBL Antibiotic Medium "A" Assay Agar | [18] | [19] | [20]; ATCC3313, BBL Antibiotic Medium "A" Assay Agar
15.7 µg/mL: [10]; ATCC26820, Davis Minimal Agar
0.03 µg/mL: [4]; ATCC27860, Davis Minimal Agar
125 µg/mL: [14]; ATCC4226, Davis Minimal Agar
> 500 µg/mL: [1]; ATCC10153, Davis Minimal Agar | [2]; ATCC8011, Davis Minimal Agar | [9]; ATCC355, Davis Minimal Agar | [15]; ATCC9341, Davis Minimal Agar | [16]; ATCC27857, Davis Minimal Agar | [20]; ATCC3313, Davis Minimal Agar
0.25 µg/mL: [5]; NRRL558, Davis Minimal Agar
1000 µg/mL: [7]; ATCC27856, Davis Minimal Agar
250 µg/mL: [10]; ATCC26820, BBL Antibiotic Medium "A" Assay Agar
62.5 µg/mL: [8]; ATCC27858, Davis Minimal Agar
500 µg/mL: [6]; NRRL477, Davis Minimal Agar | [17]; ATCC93, Davis Minimal Agar
